Experimental data: US8178506B2, “Oligomeric compounds and compositions for use in modulation of small non-coding RNAs” (Regulus Therapeutics Inc., priority 2003, dated 2012)
In the oligonucleotide strings, read from the 5' end, every base follows the letter of its sugar. An asterisk marks phosphorothioate; unmarked linkages are phosphodiester. Other units and linkages are bracketed, terminal groups are in braces. A string of capitals states the bases alone. e = 2'-O-(2-methoxyethyl) (MOE); [5mC] = 5-methylcytosine; d = 2'-deoxy (DNA)

Columns and labels:
Format in all cases: cell-based, human
[1] = tested on: adipocytes; test: Triglyceride accumulation assay in adipocytes
[2] = tested on: aP2; test: aP2 mRNA expression in adipocytes (real-time PCR); conditions: for aP2 mRNA: Table 75
[3] = tested on: PPARγ; test: PPARγ mRNA expression in adipocytes (real-time PCR)
[4] = tested on: Glut4; test: Glut4 mRNA expression in adipocytes (real-time PCR)
[5] = tested on: HSL; test: HSL mRNA expression in adipocytes (real-time PCR)
[6] = differentiating adipocytes transfected with oligomeric compound, Table 75
[7] = differentiating adipocytes transfected with oligomeric compound
[8] = Table 17, differentiating adipocytes, control = treatment with ISIS 342673
[9] = Table 18, differentiating adipocytes, control = treatment with ISIS 342673

328096 (antisense e[5mC]*e[5mC]*eT*e[5mC]*eT*e[5mC]*eA*eA*eA*eG*eA*eT*eT*eT*e[5mC]*e[5mC]*eT*eG*eT*e[5mC]*eA) [compound 328096]
TG (triglyceride accumulation) [1, 6]: 74 percentage of untreated control (UTC) | aP2 mRNA [2, 7]: 71 percentage of untreated control (UTC) | PPAR gamma mRNA [3, 6]: 89 percentage of untreated control (UTC) | GLUT4 mRNA [4, 6]: 79 percentage of untreated control (UTC) | HSL mRNA [5, 6]: 76 percentage of untreated control (UTC)

346693 (CCCUCUGGUCAACCAGUCACA; all 2'-MOE, all phosphorothioate, methylation of C and T or U not given here) [compound 346693]
TG (triglyceride accumulation) [1, 6]: 69 percentage of untreated control (UTC) | aP2 mRNA [2, 7]: 77 percentage of untreated control (UTC) | PPAR gamma mRNA [3, 6]: 81 percentage of untreated control (UTC) | GLUT4 mRNA [4, 6]: 65 percentage of untreated control (UTC) | HSL mRNA [5, 6]: 66 percentage of untreated control (UTC)

344341 (CACAUGGUUAGAUCAAGCACAA; anti-miR; all 2'-MOE, all phosphorothioate, methylation of C and T or U not given here) [compound 344341]
TG (triglyceride accumulation) [1, 6]: 50 percentage of untreated control (UTC) | aP2 mRNA [2, 7]: 42 percentage of untreated control (UTC) | PPAR gamma mRNA [3, 6]: 49 percentage of untreated control (UTC) | GLUT4 mRNA [4, 6]: 14 percentage of untreated control (UTC) | HSL mRNA [5, 6]: 33 percentage of untreated control (UTC)

328124 (antisense eA*eG*e[5mC]*eA*eG*eG*eT*eG*eA*eA*eG*eG*e[5mC]*eA*e[5mC]*e[5mC]*eT*eG*eG*e[5mC]*eT) [compound 328124]
TG (triglyceride accumulation) [1, 8]: 99.1 percentage of control | TG (triglyceride accumulation) [1, 6]: 108 percentage of untreated control (UTC) | AP2 mRNA [2, 8]: 101.8 percentage of control | aP2 mRNA [2, 7]: 118 percentage of untreated control (UTC) | PPAR gamma mRNA [3, 8]: 90.4 percentage of control | PPAR gamma mRNA [3, 6]: 92 percentage of untreated control (UTC) | GLUT4 mRNA [4, 8]: 122.7 percentage of control | GLUT4 mRNA [4, 6]: 105 percentage of untreated control (UTC) | HSL mRNA [5, 8]: 103.6 percentage of control | HSL mRNA [5, 6]: 96 percentage of untreated control (UTC)

344268 (antisense ACACAAAUUCGGUUCUACAGGG; all 2'-MOE, all phosphorothioate, methylation of C and T or U not given here) [compound 344268]
TG (triglyceride accumulation) [1, 6]: 57 percentage of untreated control (UTC) | aP2 mRNA [2, 7]: 46 percentage of untreated control (UTC) | PPAR gamma mRNA [3, 6]: 53 percentage of untreated control (UTC) | GLUT4 mRNA [4, 6]: 22 percentage of untreated control (UTC) | HSL mRNA [5, 6]: 44 percentage of untreated control (UTC)

328121 (antisense eA*eT*eG*eA*e[5mC]*eT*eA*e[5mC]*eA*eA*eG*eT*eT*eT*eA*eT*eG*eG*e[5mC]*e[5mC]*eA) [compound 328121]
TG (triglyceride accumulation) [1, 8]: 134.8 percentage of control | TG (triglyceride accumulation) [1, 6]: 119 percentage of untreated control (UTC) | AP2 mRNA [2, 8]: 127.0 percentage of control | aP2 mRNA [2, 7]: 119 percentage of untreated control (UTC) | PPAR gamma mRNA [3, 8]: 103.6 percentage of control | PPAR gamma mRNA [3, 6]: 105 percentage of untreated control (UTC) | GLUT4 mRNA [4, 8]: 140.8 percentage of control | GLUT4 mRNA [4, 6]: 115 percentage of untreated control (UTC) | HSL mRNA [5, 8]: 126.0 percentage of control | HSL mRNA [5, 6]: 110 percentage of untreated control (UTC)

344342 (AUGCUUUUUGGGGUAAGGGCUU; anti-miR; all 2'-MOE, all phosphorothioate, methylation of C and T or U not given here) [compound 344342]
TG (triglyceride accumulation) [1, 6]: 88 percentage of untreated control (UTC) | aP2 mRNA [2, 7]: 88 percentage of untreated control (UTC) | PPAR gamma mRNA [3, 6]: 83 percentage of untreated control (UTC) | GLUT4 mRNA [4, 6]: 71 percentage of untreated control (UTC) | HSL mRNA [5, 6]: 87 percentage of untreated control (UTC)

346921 (AACAACCAGCUAAGACACUGCCA; all 2'-MOE, all phosphorothioate, methylation of C and T or U not given here) [compound 346921]
TG (triglyceride accumulation) [1, 6]: 52 percentage of untreated control (UTC) | aP2 mRNA [2, 7]: 69 percentage of untreated control (UTC) | PPAR gamma mRNA [3, 6]: 62 percentage of untreated control (UTC) | GLUT4 mRNA [4, 6]: 51 percentage of untreated control (UTC) | HSL mRNA [5, 6]: 49 percentage of untreated control (UTC)

328094 (antisense eT*eT*eG*eT*eA*eA*eG*e[5mC]*eA*eG*eT*eT*eT*eT*eG*eT*eT*eG*eA*e[5mC]*eA) [compound 328094]
TG (triglyceride accumulation) [1, 6]: 65 percentage of untreated control (UTC) | aP2 mRNA [2, 7]: 68 percentage of untreated control (UTC) | PPAR gamma mRNA [3, 6]: 94 percentage of untreated control (UTC) | GLUT4 mRNA [4, 6]: 83 percentage of untreated control (UTC) | HSL mRNA [5, 6]: 74 percentage of untreated control (UTC)

344276 (antisense CAGGCAUAGGAUGACAAAGGGAA; all 2'-MOE, all phosphorothioate, methylation of C and T or U not given here) [compound 344276]
TG (triglyceride accumulation) [1, 6]: 66 percentage of untreated control (UTC) | aP2 mRNA [2, 7]: 72 percentage of untreated control (UTC) | PPAR gamma mRNA [3, 6]: 72 percentage of untreated control (UTC) | GLUT4 mRNA [4, 6]: 49 percentage of untreated control (UTC) | HSL mRNA [5, 6]: 68 percentage of untreated control (UTC)

328120 (antisense eA*eA*eG*eA*eA*eG*eG*eA*eA*eG*eG*eA*eG*eG*eG*eA*eA*eA*eG*e[5mC]*eA) [compound 328120]
TG (triglyceride accumulation) [1, 8]: 82.7 percentage of control | TG (triglyceride accumulation) [1, 6]: 80 percentage of untreated control (UTC) | AP2 mRNA [2, 8]: 81.0 percentage of control | aP2 mRNA [2, 7]: 80 percentage of untreated control (UTC) | PPAR gamma mRNA [3, 8]: 70.5 percentage of control | PPAR gamma mRNA [3, 6]: 73 percentage of untreated control (UTC) | GLUT4 mRNA [4, 8]: 94.8 percentage of control | GLUT4 mRNA [4, 6]: 68 percentage of untreated control (UTC) | HSL mRNA [5, 8]: 77.7 percentage of control | HSL mRNA [5, 6]: 67 percentage of untreated control (UTC)

344615 (UCAACAAAAUCACUGAUGCUGGA; anti-miR; all 2'-MOE, all phosphorothioate, methylation of C and T or U not given here) [compound 344615]
TG (triglyceride accumulation) [1, 6]: 149 percentage of untreated control (UTC) | aP2 mRNA [2, 7]: 166 percentage of untreated control (UTC) | PPAR gamma mRNA [3, 6]: 144 percentage of untreated control (UTC) | GLUT4 mRNA [4, 6]: 145 percentage of untreated control (UTC) | HSL mRNA [5, 6]: 154 percentage of untreated control (UTC)

348119 (UCCAUAAAGUAGGAAACACUACA; anti-miR; all 2'-MOE, all phosphorothioate, methylation of C and T or U not given here) [compound 348119]
TG (triglyceride accumulation) [1, 6]: 91 percentage of untreated control (UTC) | aP2 mRNA [2, 7]: 81 percentage of untreated control (UTC) | PPAR gamma mRNA [3, 6]: 90 percentage of untreated control (UTC) | GLUT4 mRNA [4, 6]: 86 percentage of untreated control (UTC) | HSL mRNA [5, 6]: 76 percentage of untreated control (UTC)

328340 (eT*eA*eA*eT*eA*dT*dA*dT*dA*dT*dT*dT*d[5mC]*dA*d[5mC]*eT*eA*e[5mC]*eG*e[5mC]) [compound 328340]
TG (triglyceride accumulation) [1, 7]: 76 percentage of untreated control (UTC) | AP2 mRNA [2, 7]: 85 percentage of untreated control (UTC) | PPAR gamma mRNA [3, 7]: 110 percentage of untreated control (UTC) | GLUT4 mRNA [4, 7]: 112 percentage of untreated control (UTC) | HSL mRNA [5, 7]: 130 percentage of untreated control (UTC)

340358 (antisense CAGCUAUGCCAGCAUCUUGCC; all 2'-MOE, all phosphorothioate, methylation of C and T or U not given here) [compound 340358]
TG (triglyceride accumulation) [1, 6]: 23 percentage of untreated control (UTC) | aP2 mRNA [2, 7]: 47 percentage of untreated control (UTC) | PPAR gamma mRNA [3, 6]: 42 percentage of untreated control (UTC) | GLUT4 mRNA [4, 6]: 21 percentage of untreated control (UTC) | HSL mRNA [5, 6]: 24 percentage of untreated control (UTC)

344343 (AUGCCCUUUCAUCAUUGCACUG; anti-miR; all 2'-MOE, all phosphorothioate, methylation of C and T or U not given here) [compound 344343]
TG (triglyceride accumulation) [1, 6]: 32 percentage of untreated control (UTC) | aP2 mRNA [2, 7]: 25 percentage of untreated control (UTC) | PPAR gamma mRNA [3, 6]: 30 percentage of untreated control (UTC) | GLUT4 mRNA [4, 6]: 4 percentage of untreated control (UTC) | HSL mRNA [5, 6]: 22 percentage of untreated control (UTC)

328109 (antisense eA*eA*eA*eG*eA*eA*eG*eT*eA*eT*eA*eT*eG*e[5mC]*eA*eT*eA*eG*eG*eA*eA) [compound 328109]
TG (triglyceride accumulation) [1, 9]: 84.9 percentage of control | TG (triglyceride accumulation) [1, 6]: 23 percentage of untreated control (UTC) | AP2 mRNA [2, 9]: 84.9 percentage of control | aP2 mRNA [2, 7]: 68 percentage of untreated control (UTC) | PPAR gamma mRNA [3, 9]: 96.1 percentage of control | PPAR gamma mRNA [3, 6]: 69 percentage of untreated control (UTC) | GLUT4 mRNA [4, 9]: 106.6 percentage of control | GLUT4 mRNA [4, 6]: 55 percentage of untreated control (UTC) | HSL mRNA [5, 9]: 86.9 percentage of control | HSL mRNA [5, 6]: 62 percentage of untreated control (UTC)
